Measured values as given in US6914045B2, “Glycopeptide antibiotics” (Wyeth Holdings Corporation, priority 2001, dated 2005).
Values after ≈ are worked out from the molar mass of the structure shown.

Assays:
Assay in all cases: in vitro antibacterial evaluation, MIC by broth dilution
Format in all cases: cell-based
Escherichia coli = system: Escherichia coli
Summary of the method: (§1)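 Following National Committee for Clinical Laboratory Standards recommendations (M7-A2), susceptibility was measured by dilution in Muller-Hinton II […]. Bacteria were seeded at 5×10^5 CFU/mL against compound concentrations from 64 down to 0.06 μg/mL.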

Staphylococcus sp. = settings: broth dilution, 18 hours at 35° C.; for MIC Staphylococcus aureus (GC 1131): strain GC 1131
Summary of the method: as §1

Enterococcus sp. = settings: broth dilution, 18 hours at 35° C.; for MIC Enterococcus faecalis (ATCC 29212): strain ATCC 29212; for MIC Enterococcus faecalis (GC 2242): strain GC 2242; for MIC Enterococcus faecium (GC 2243): strain GC 2243; for MIC Enterococcus faecalis (GC 2691): strain GC 2691; for MIC Enterococcus faecalis (GC 3059): strain GC 3059; for MIC Enterococcus faecalis (GC 4552): strain GC 4552; for MIC Enterococcus faecalis (GC 4553): strain GC 4553; for MIC Enterococcus faecalis (GC 4554): strain GC 4554; for MIC Enterococcus faecium (GC 4556): strain GC 4556; for MIC Enterococcus faecium (GC 4557): strain GC 4557; for MIC Enterococcus avium (GC 4558): strain GC 4558; for MIC Enterococcus faecalis (GC 6189): strain GC 6189
Summary of the method: as §1

Streptococcus sp. = settings: broth dilution, 18 hours at 35° C.; for MIC Streptococcus pneumoniae (ATCC 6301): strain ATCC 6301; for MIC Streptococcus pneumoniae (GC 1894): strain GC 1894; for MIC Streptococcus pyogenes (GC 4563): strain GC 4563; for MIC Streptococcus agalactiae (GC 4564): strain GC 4564; for MIC Streptococcus pneumoniae (GC 4565): strain GC 4565
Summary of the method: as §1

## CC(c1ccccc1)C1NC(=O)CNC(=O)C(CO)NC(=O)C(C(O)C2CNC(=N)N2C2OC(CO)C(O)C(O)C2O)NC(=O)C(C(O)C2CNC(=N)N2)NC(=O)C(Cc2ccc(OC3OC(CO)C(OC4OC5COC(c6ccc(C(=O)c7ccccc7)cc6)OC5C(O)C4O)C(O)C3O)cc2)NC1=O (centres unmarked) [Example 173]
Escherichia coli; strain ATCC 25922, 18 hours at 35° C.
  MIC Escherichia coli (ATCC 25922): 32 µg/mL (≈ 21.5 µM)
Escherichia coli; strain GC 4559, 18 hours at 35° C.
  MIC Escherichia coli (GC 4559): 16 µg/mL (≈ 10.8 µM)
Escherichia coli; strain GC 4560, 18 hours at 35° C.
  MIC Escherichia coli (GC 4560): 0.5 µg/mL (≈ 0.336 µM)
Staphylococcus sp.; inoculum 5×10^5 CFU/mL
  MIC Staphylococcus aureus (GC 1131): 2 µg/mL (≈ 1.34 µM)
Staphylococcus sp.; strain ATCC 29213
  MIC Staphylococcus aureus (ATCC 29213): 1 µg/mL (≈ 0.672 µM)
Staphylococcus sp.
  MIC Staphylococcus aureus (GC 1131): 2 µg/mL (≈ 1.34 µM)
Staphylococcus sp.; strain GC 3051
  MIC Staphylococcus aureus (GC 3051): 0.5 µg/mL (≈ 0.336 µM)
Staphylococcus sp.; strain GC 3053
  MIC Staphylococcus aureus (GC 3053): 1 µg/mL (≈ 0.672 µM)
Staphylococcus sp.; strain GC 4541
  MIC Staphylococcus aureus (GC 4541): 0.5 µg/mL (≈ 0.336 µM)
Staphylococcus sp.; strain GC 4542
  MIC Staphylococcus aureus (GC 4542): 0.5 µg/mL (≈ 0.336 µM)
Staphylococcus sp.; strain GC 4543
  MIC Staphylococcus aureus-SMITH (GC 4543): 0.5 µg/mL (≈ 0.336 µM)
Staphylococcus sp.; strain GC 4544
  MIC Staphylococcus aureus (GC 4544): 2 µg/mL (≈ 1.34 µM)
Staphylococcus sp.; strain GC 4545
  MIC Staphylococcus aureus (GC 4545): 2 µg/mL (≈ 1.34 µM)
Staphylococcus sp.; strain GC 4546
  MIC Staphylococcus haemolyticus (GC 4546): 1 µg/mL (≈ 0.672 µM)
Staphylococcus sp.; strain GC 4547
  MIC Coagulase Negative Staphylococcus (GC 4547): 2 µg/mL (≈ 1.34 µM)
Staphylococcus sp.; strain GC 4548
  MIC Coagulase Negative Staphylococcus (GC 4548): 0.5 µg/mL (≈ 0.336 µM)
Staphylococcus sp.; strain GC 4549
  MIC Coagulase Negative Staphylococcus (GC 4549): 0.25 µg/mL (≈ 0.168 µM)
Staphylococcus sp.; strain GC 4551
  MIC Coagulase Negative Staphylococcus (GC 4551): 0.5 µg/mL (≈ 0.336 µM)
Staphylococcus sp.; strain GC 6257
  MIC Coagulase Negative Staphylococcus (GC 6257): 0.5 µg/mL (≈ 0.336 µM)
Enterococcus sp.; inoculum 5×10^5 CFU/mL
  MIC Enterococcus faecalis (ATCC 29212): 1 µg/mL (≈ 0.672 µM)
  MIC Enterococcus faecalis (GC 2242): 2 µg/mL (≈ 1.34 µM)
  MIC Enterococcus faecium (GC 2243): 2 µg/mL (≈ 1.34 µM)
  MIC Enterococcus faecalis (GC 2691): 2 µg/mL (≈ 1.34 µM)
  MIC Enterococcus faecalis (GC 3059): 2 µg/mL (≈ 1.34 µM)
  MIC Enterococcus faecalis (GC 4552): 2 µg/mL (≈ 1.34 µM)
  MIC Enterococcus faecalis (GC 4553): 2 µg/mL (≈ 1.34 µM)
  MIC Enterococcus faecalis (GC 4554): 2 µg/mL (≈ 1.34 µM)
  MIC Enterococcus faecium (GC 4556): 1 µg/mL (≈ 0.672 µM)
  MIC Enterococcus faecium (GC 4557): 2 µg/mL (≈ 1.34 µM)
  MIC Enterococcus avium (GC 4558): 1 µg/mL (≈ 0.672 µM)
  MIC Enterococcus faecalis (GC 6189): 1 µg/mL (≈ 0.672 µM)
Enterococcus sp.
  MIC Enterococcus faecalis (ATCC 29212): 1 µg/mL (≈ 0.672 µM)
  MIC Enterococcus faecalis (GC 2242): 2 µg/mL (≈ 1.34 µM)
  MIC Enterococcus faecium (GC 2243): 2 µg/mL (≈ 1.34 µM)
  MIC Enterococcus faecalis (GC 2691): 2 µg/mL (≈ 1.34 µM)
  MIC Enterococcus faecalis (GC 3059): 2 µg/mL (≈ 1.34 µM)
  MIC Enterococcus faecalis (GC 4552): 2 µg/mL (≈ 1.34 µM)
  MIC Enterococcus faecalis (GC 4553): 2 µg/mL (≈ 1.34 µM)
  MIC Enterococcus faecalis (GC 4554): 2 µg/mL (≈ 1.34 µM)
  MIC Enterococcus faecium (GC 4556): 1 µg/mL (≈ 0.672 µM)
  MIC Enterococcus faecium (GC 4557): 2 µg/mL (≈ 1.34 µM)
  MIC Enterococcus avium (GC 4558): 1 µg/mL (≈ 0.672 µM)
  MIC Enterococcus faecalis (GC 6189): 1 µg/mL (≈ 0.672 µM)
Streptococcus sp.; inoculum 5×10^5 CFU/mL
  MIC Streptococcus pneumoniae (ATCC 6301): <0.12 µg/mL
  MIC Streptococcus pneumoniae (GC 1894): <0.12 µg/mL
  MIC Streptococcus pyogenes (GC 4563): <0.12 µg/mL
  MIC Streptococcus agalactiae (GC 4564): <0.12 µg/mL
  MIC Streptococcus pneumoniae (GC 4565): <0.12 µg/mL
Streptococcus sp.
  MIC Streptococcus pneumoniae (ATCC 6301): <0.12 µg/mL
  MIC Streptococcus pneumoniae (GC 1894): <0.12 µg/mL
  MIC Streptococcus pyogenes (GC 4563): <0.12 µg/mL
  MIC Streptococcus agalactiae (GC 4564): <0.12 µg/mL
  MIC Streptococcus pneumoniae (GC 4565): <0.12 µg/mL
